Where two headings read alike, the source gives them in different places.
Key:
[1] = tested on: GP8.3 cells; assay: ionizing radiation damage to rat brain vasculature endothelial cells; format: cell-based
Protocol: Cells were cultured in α-MEM/Ham's F10, 10% FBS, 50 IU/mL penicillin, 50 μg/mL streptomycin, […] L-glutamine, and 250 μg/mL Geneticin and maintained in a humidified atmosphere containing 5% CO2 at 37° C. Intracellular reactive oxygen species (ROS) generation was measured in GP8.3 cells using 2′7′ dichlorodihydrofluorescein diacetate (DCFH-DA). Cells were incubated with 20 μM DCFH-DA in phosphate buffered saline (PBS) for 30 min prior to irradiation. The fluorescence intensity was measured at excitation wavelength 485 nm and emission wavelength 530 nm using a Bio-Tek FL500 microplate fluorescence reader. Western blot analysis: GP8.3 cells were collected following treatment and protein was separated by polyacrylamide gel electrophoresis (PAGE) on a 12% gel. Primary goat anti-ICAM-1 and mouse anti-β-actin were used. The secondary antibody was horse radish peroxidase (HRP)-conjugated secondary antibodies. Northern blot analysis: Total RNA was isolated using Tri-ZOL reagent. cDNA probes were labeled with α32P-dCTP by the random primer extension method. The cDNA of rat ICAM-1 was synthesized. Cell viability was determined using a modified 3-(4,5-Dimethylthiazol-2-yl)-2,5-Diphenyltetrazolium Bromide (MTT) assay. Briefly, 5,000 cells/well were plated in 24-well plates and incubated overnight. […] At the end of the follow-up period, cells were incubated with MTT in PBS for 4 h. Cell lysis detergent (20% SDS and 50% dimethylformamide, pH 4.7, in PBS) was then added and the plates incubated overnight at 37° C. A 100 μl aliquot of the soluble fraction was then transferred to 96-well microplates, and the absorbance at 570 nm measured using an Enzyme-Linked ImmunoSorbent Assay (ELISA) plate reader.

[2] = tested on: hippocampal progenitor cells; details: for magnitude of increase in proliferation of hippocampal progenitor cells: oral gavage, vs vehicle; for proliferation of progenitor cells in the hippocampus: 129SvEv mice
Text: Since new neurons develop from the progenitor cells in the hippocampus, measuring the proliferation of this cell population may be used as an indicator of the full neurogenesis process. Hippocampal neurogenesis can be evaluated by measuring the incorporation of deuterium from heavy water into the DNA of progenitor cells and the rate of label incorporation reflects the rate of cellular proliferation. Fluoxetine, a known neurogenic antidepressant, was used as the positive control and as a comparator to the nicotinic ligands.
Mice were labeled for the last 10-11 days of the drug treatment period. Tissue processing and analysis: At the end of treatment and label, mice were sacrificed, the hippocampus was dissected from the brain and digested with papain and progenitor cells were isolated by Percoll fractionation. DNA was purified from the isolated progenitor cells using a DNEasy tissue kit (Qiagen, Valencia, Calif.), then processed and analyzed by GC/MS. DNA was enzymatically hydrolyzed to free deoxyribonucleosides, and the deoxyribose moiety of purine deoxyribonucleosides was converted to the pentafluorobenzyl triacetate derivative. […] Incorporation of ^2H into purine deoxyribose was quantified as the molar excess fraction M1 (EM1), i.e. the increase over natural abundance (background), determined from the fractional M1 value in unlabeled DNA standards from calf thymus.
Concurrent analysis of DNA from bone marrow cells, which are fully turned over in 1 week provides an internal reference factor in each animal to correct for variations in body water ^2H enrichment. The fraction of newly divided progenitor cells was calculated as the ratio of EM1 in purine deoxyribose from progenitor cell DNA to the corresponding EM1 from enrichment in bone marrow DNA.

[3] = tested on: microglia; details: mice
Text: The proliferation of microglial cells is an early event in the activation process in animal models of neuroinflammation. Microglial activation is thought to contribute to the pathology of many CNS neuro-inflammatory and neurodegenerative disorders.

[4] = tested on: PC12 cells; assay: neuroprotection against Abeta(1-42) in PC12 cells; format: cell-based, rat
Text: It has been shown that nicotine-induced complex formation between the alpha7 nicotinic acetylcholine receptor (nAChR) and the tyrosine-phosphorylated enzyme Janus kinase 2 (JAK2) results in subsequent activation of phosphatidylinositol-3-kinase (PI-3-K) and Akt. Nicotine interaction with the alpha7 nAChR inhibits Aβ (1-42) interaction with the same receptor, and Aβ (1-42)-induced apoptosis is prevented through nicotine-induced activation of JAK2. These effects can be shown by measuring markers of cytotoxicity, including the cleavage of the nuclear protein poly(ADP-ribose) polymerase (PARP), the induction of caspase 3, or cell viability.
PC12, rat pheochromocytoma cells, were maintained in proliferative growth phase in Dulbecco's modified Eagle's medium supplemented with 10% horse serum, 5% fetal calf serum, and antibiotics (penicillin/streptomycin). Apoptosis was determined by assessing the cleavage of the DNA-repairing enzyme PARP using a Western blot assay. […] Caspase 3 enzyme activity was determined with a fluorogenic substrate for caspase-3 in crude PC12 cell extracts. […] The substrate emits a blue fluorescence when excited at a wavelength of 360 nm. When cleaved from the peptide by the caspase 3 enzyme activity in the cell lysate, free 7-amino-4-methyl Coumarin is released and can be detected by its yellow/green emission at 460 nm. […]

[5] = target: alpha4beta2 (Homo sapiens, UniProt P17787+P43681); assay: functional agonism at alpha4beta2
Chain of alpha4beta2 (P43681 29-627 limits assumed): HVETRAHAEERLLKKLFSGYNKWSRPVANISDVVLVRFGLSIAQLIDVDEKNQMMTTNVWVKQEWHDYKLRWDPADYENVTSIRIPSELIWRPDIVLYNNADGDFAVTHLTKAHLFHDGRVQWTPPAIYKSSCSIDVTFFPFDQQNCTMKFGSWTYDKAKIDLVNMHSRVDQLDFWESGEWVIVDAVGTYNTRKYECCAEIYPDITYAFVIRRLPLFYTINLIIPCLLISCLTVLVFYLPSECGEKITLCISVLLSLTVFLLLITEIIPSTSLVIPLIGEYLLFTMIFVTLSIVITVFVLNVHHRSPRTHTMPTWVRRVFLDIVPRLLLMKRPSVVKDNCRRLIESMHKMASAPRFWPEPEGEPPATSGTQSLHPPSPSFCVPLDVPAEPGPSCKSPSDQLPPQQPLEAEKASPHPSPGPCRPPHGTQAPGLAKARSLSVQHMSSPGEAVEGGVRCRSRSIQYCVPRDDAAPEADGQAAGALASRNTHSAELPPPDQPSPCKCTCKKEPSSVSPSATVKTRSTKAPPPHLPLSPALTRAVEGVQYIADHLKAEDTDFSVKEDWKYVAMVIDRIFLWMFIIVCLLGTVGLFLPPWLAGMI
Chain of alpha4beta2 (P17787 26-502): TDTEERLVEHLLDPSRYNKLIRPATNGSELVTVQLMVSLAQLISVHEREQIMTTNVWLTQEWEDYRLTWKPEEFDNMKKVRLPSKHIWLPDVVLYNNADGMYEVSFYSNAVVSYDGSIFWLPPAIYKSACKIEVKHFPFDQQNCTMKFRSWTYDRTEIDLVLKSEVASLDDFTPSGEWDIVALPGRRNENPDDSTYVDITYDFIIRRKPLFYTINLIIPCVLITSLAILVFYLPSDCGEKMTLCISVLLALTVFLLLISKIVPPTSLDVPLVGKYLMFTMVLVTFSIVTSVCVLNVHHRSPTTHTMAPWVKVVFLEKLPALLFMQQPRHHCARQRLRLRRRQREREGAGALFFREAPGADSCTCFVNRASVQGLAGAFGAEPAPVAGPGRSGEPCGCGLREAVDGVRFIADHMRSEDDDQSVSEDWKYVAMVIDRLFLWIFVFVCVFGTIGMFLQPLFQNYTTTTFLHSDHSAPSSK
Text: […]. […] […]

[6] = target: T1, human alpha7 nicotinic receptors (Homo sapiens, UniProt P36544); assay: electrophysiology functional assay in Xenopus laevis oocytes; format: cell-based
T1 construct: expressed in transfected cells; host or cells: Xenopus laevis oocytes (transient expression)
T1 sequence (P36544 23-502): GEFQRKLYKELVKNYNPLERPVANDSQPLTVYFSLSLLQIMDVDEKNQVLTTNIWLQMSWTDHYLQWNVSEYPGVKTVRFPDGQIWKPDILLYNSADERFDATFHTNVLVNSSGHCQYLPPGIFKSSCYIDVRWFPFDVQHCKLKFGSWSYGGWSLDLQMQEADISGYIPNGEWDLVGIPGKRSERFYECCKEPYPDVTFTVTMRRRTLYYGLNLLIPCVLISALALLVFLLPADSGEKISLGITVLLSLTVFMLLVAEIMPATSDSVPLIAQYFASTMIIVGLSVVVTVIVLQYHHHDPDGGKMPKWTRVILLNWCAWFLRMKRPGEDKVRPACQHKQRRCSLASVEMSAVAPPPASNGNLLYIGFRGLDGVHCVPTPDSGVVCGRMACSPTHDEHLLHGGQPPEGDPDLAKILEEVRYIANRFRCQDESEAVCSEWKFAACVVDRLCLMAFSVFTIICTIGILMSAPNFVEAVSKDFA

[7] = target: T2, alpha7 nAChR (Rattus norvegicus, UniProt Q05941); assay: displacement studies using 3H-MLA in rat hippocampal tissues; format: binding
T2 construct: displacement studies using ^3H-MLA in rat hippocampal tissues; from tissue; host or cells: rat hippocampus
T2 sequence (Q05941 23-502): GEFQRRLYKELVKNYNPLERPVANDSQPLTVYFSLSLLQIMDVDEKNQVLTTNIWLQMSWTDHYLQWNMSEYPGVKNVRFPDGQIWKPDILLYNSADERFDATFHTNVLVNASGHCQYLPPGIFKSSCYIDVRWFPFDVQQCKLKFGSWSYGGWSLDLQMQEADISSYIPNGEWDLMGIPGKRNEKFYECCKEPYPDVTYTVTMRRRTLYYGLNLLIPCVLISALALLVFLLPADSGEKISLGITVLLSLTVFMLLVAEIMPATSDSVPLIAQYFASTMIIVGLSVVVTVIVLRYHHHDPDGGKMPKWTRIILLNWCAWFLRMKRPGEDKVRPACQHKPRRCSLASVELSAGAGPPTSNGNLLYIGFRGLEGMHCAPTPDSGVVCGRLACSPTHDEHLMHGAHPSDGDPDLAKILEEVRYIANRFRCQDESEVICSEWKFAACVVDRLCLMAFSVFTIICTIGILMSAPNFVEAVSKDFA

[8] = tested on: other nicotinic receptors, including alpha4beta2; assay: binding affinity for other nicotinic receptors ([3H]-nicotine binding)

Compound: CNC1(C)C2CCC(C2)C1(C)C (centres unmarked) [mecamylamine, reference compound]
- effect on the Compound A-induced changes (IL-6, ICAM-1, ROS) ([1]; antagonist with Compound A): reversed

Compound: Cc1ccc(C(=O)N[C@@H]2C3CCN(CC3)[C@H]2Cc2cccnc2)s1 [Compound A, 5-methyl-N-[(2S,3R)-2-(pyridin-3-ylmethyl)-1-azabicyclo[2.2.2]oct-3-yl]thiophene-2-carboxamide]
- magnitude of increase in proliferation of hippocampal progenitor cells ([2]; 0.1 mg/kg, 3 weeks): 36%
- magnitude of increase in proliferation of hippocampal progenitor cells ([2]; 0.3 mg/kg, 3 weeks): 24%
- magnitude of increase in proliferation of hippocampal progenitor cells ([2]; 1 mg/kg, 3 weeks): 30%
- proliferation of progenitor cells in the hippocampus ([2]; repeat administration 0.1-1 mg/kg/day p.o.): increase the proliferation of progenitor cells
- LPS-induced neuroinflammation (microglial proliferation) ([3]; 1 mg/kg p.o.): decreased LPS-induced neuroinflammation
- radiation-induced up-regulation of ICAM1 mRNA and protein ([1]; pre-incubation (10 μM per FIG. 7)): ameliorated
- radiation-induced up-regulation of ROS ([1]; pre-incubation (10 μM per FIG. 8)): abolished
- radiation-induced up-regulation of IL-6 mRNA and protein ([1]; pre-incubation with 10 μM): abolished

Compound: c1cncc(C2CCC3CCN2CC3)c1 (centres unmarked) [Compound B, 2-(3-pyridinyl)-1-azabicyclo[3.2.2]nonane]
- cell survival in PC-12 cells exposed to lethal amounts of Abeta(1-42) ([4]; FIG. 10): neuroprotective
- neuroprotection against Aβ (1-42) via JAK2/PI-3K cascade (PARP cleavage) ([4]; PC12 cells): exerts neuroprotective effects
- functional agonism at alpha4beta2 [5]: not functionally agonistic
- Emax [6]: > 50%
- Ki [7]: 1 to 2 nM
- binding to alpha4beta2 [8]: binds to alpha4beta2

Compound: CNCCC(Oc1ccc(C(F)(F)F)cc1)c1ccccc1 (centres unmarked) [fluoxetine, Fluoxetine, reference compound]
- increase in proliferation of hippocampal progenitor cells ([2]; 10 mg/kg po, 3 weeks, positive control): 35%

Compound: CN1CCCC1c1cccnc1 (centres unmarked) [Compound C, nicotine, reference compound]
- proliferation of progenitor cells in the hippocampus ([2]; repeat administration 1 mg/kg/day p.o.): increase the proliferation of progenitor cells
- affinity for alpha7 nAChR ([7]; displacement of [3H]-MLA): high affinity
- binding to alpha4beta2 [8]: high affinity
- LPS-induced neuroinflammation (microglial proliferation) ([3]; 0.1 mg/kg p.o.): decreased LPS-induced neuroinflammation

Source: US20110262407A1, “TREATMENT WITH ALPHA7 SELECTIVE LIGANDS” (Targacept, Inc., priority 2008, published 2011)
